From ChEMBL document CHEMBL3045592, “Studies of O,O-dimethyl α-(2,4-dichlorophenoxyacetoxy)ethylphosphonate (HW02) as a new herbicide. 1. Synthesis and herbicidal activity of HW02 and analogues as novel inhibitors of pyruvate dehydrogenase complex” (J Agric Food Chem, 2011)

Experiments:
Brassica juncea = test: Post-emergence herbicidal activity against Brassica juncea assessed as growth inhibition at 450 ai g/ha after 20 days by green house test; format: functional
Digitaria sanguinalis [1] = test: Post-emergence herbicidal activity against Digitaria sanguinalis (hairy crabgrass) assessed as growth inhibition at 75 ai g/ha after 20 days by green house test; format: functional
Chenopodium album [2] = test: Post-emergence herbicidal activity against Chenopodium album assessed as growth inhibition at 450 ai g/ha after 20 days by green house test; format: functional
Chenopodium album [3] = test: Pre-emergence herbicidal activity against Chenopodium album assessed as growth inhibition at 450 ai g/ha after 20 days by green house test; format: functional
Chenopodium album [4] = test: Pre-emergence herbicidal activity against Chenopodium album assessed as growth inhibition at 75 ai g/ha after 20 days by green house test; format: functional
Amaranthus spinosus [5] = test: Post-emergence herbicidal activity against Amaranthus spinosus assessed as growth inhibition at 450 ai g/ha after 20 days by green house test; format: functional
Amaranthus spinosus [6] = test: Post-emergence herbicidal activity against Amaranthus spinosus assessed as growth inhibition at 150 ai g/ha after 20 days by green house test; format: functional
Amaranthus spinosus [7] = test: Post-emergence herbicidal activity against Amaranthus spinosus assessed as growth inhibition at 75 ai g/ha after 20 days by green house test; format: functional
[8] = biological target: T1, Pyruvate dehydrogenase complex (Pisum sativum) (UniProt P52902+P52904); test: Inhibition of PDHc in Pisum sativum Zhongwan-2 (pea) shoot mitochondria assessed as decrease in rate of NADH formation using sodium pyruvate as substrate at 100 microg/g preincubated for 25 min before substrate addition measured after 1 min by spectrophotometric assay; format: protein-complex assay; details: Lathyrus oleraceus
[9] = biological target: T1, Pyruvate dehydrogenase complex (Pisum sativum); test: Inhibition of PDHc in Pisum sativum Zhongwan-2 (pea) shoot mitochondria assessed as decrease in rate of NADH formation using sodium pyruvate as substrate at 1000 microg/g preincubated for 25 min before substrate addition measured after 1 min by spectrophotometric assay; format: protein-complex assay; details: Lathyrus oleraceus
[10] = biological target: T2, Pyruvate dehydrogenase complex (Pisum sativum, UniProt P52902+P52904); test: Inhibition of PDHc in Pisum sativum Zhongwan-2 (pea) shoot mitochondria assessed as decrease in rate of NADH formation using sodium pyruvate as substrate preincubated for 25 min before substrate addition measured after 1 min by spectrophotometric assay; format: protein-complex assay, Lathyrus oleraceus
T2 sequence (P52902 whole entry): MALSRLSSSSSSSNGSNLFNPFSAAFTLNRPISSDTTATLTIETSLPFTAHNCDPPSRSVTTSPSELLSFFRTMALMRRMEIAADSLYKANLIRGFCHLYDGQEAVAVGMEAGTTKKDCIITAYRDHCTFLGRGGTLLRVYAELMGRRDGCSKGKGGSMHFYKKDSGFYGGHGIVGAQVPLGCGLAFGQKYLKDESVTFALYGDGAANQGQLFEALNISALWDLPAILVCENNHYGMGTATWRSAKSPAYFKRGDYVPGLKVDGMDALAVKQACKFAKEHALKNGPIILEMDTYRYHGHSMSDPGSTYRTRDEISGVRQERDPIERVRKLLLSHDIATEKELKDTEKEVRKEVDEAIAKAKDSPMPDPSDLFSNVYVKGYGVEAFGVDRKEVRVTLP
T2 sequence (P52904 whole entry): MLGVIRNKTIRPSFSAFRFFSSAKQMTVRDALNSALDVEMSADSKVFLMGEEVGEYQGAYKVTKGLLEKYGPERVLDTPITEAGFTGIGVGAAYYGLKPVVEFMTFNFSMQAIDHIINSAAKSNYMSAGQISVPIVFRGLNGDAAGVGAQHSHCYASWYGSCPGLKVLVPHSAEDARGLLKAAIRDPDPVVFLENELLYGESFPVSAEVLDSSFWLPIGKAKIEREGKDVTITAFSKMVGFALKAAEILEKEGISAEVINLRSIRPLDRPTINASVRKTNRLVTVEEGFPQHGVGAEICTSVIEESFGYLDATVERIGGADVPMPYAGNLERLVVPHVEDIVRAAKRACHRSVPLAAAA

Abutilon theophrasti [11] = test: Post-emergence herbicidal activity against Abutilon theophrasti (velvetleaf) assessed as growth inhibition at 75 ai g/ha after 20 days by green house test; format: functional
Abutilon theophrasti [12] = test: Pre-emergence herbicidal activity against Abutilon theophrasti (velvetleaf) assessed as growth inhibition at 450 ai g/ha after 20 days by green house test; format: functional
Abutilon theophrasti [13] = test: Pre-emergence herbicidal activity against Abutilon theophrasti (velvetleaf) assessed as growth inhibition at 75 ai g/ha after 20 days by green house test; format: functional
Echinochloa crus-galli [14] = test: Post-emergence herbicidal activity against Echinochloa crus-galli (barnyard grass) assessed as growth inhibition at 1500 ai g/ha after 20 days by green house test; format: functional
Medicago sativa = test: Pre-emergence herbicidal activity against Medicago sativa (alfalfa) assessed as growth inhibition at 1500 ai g/ha after 20 days by green house test; format: functional
Amaranthus retroflexus [15] = test: Pre-emergence herbicidal activity against Amaranthus retroflexus assessed as growth inhibition at 1500 ai g/ha after 20 days by green house test; format: functional
[16] = system: Brassica rapa subsp. oleifera; test: Pre-emergence herbicidal activity against Brassica rapa subsp. oleifera Si Yue Man assessed as growth inhibition at 1500 ai g/ha after 20 days by green house test; format: functional
Digitaria sanguinalis [17] = test: Pre-emergence herbicidal activity against Digitaria sanguinalis (hairy crabgrass) assessed as growth inhibition at 1500 ai g/ha after 20 days by green house test; format: functional
Echinochloa crus-galli [18] = test: Pre-emergence herbicidal activity against Echinochloa crus-galli (barnyard grass) assessed as growth inhibition at 1500 ai g/ha after 20 days by green house test; format: functional
Amaranthus spinosus [19] = test: Pre-emergence herbicidal activity against Amaranthus spinosus assessed as growth inhibition at 450 ai g/ha after 20 days by green house test; format: functional
Amaranthus spinosus [20] = test: Pre-emergence herbicidal activity against Amaranthus spinosus assessed as growth inhibition at 150 ai g/ha after 20 days by green house test; format: functional
Amaranthus spinosus [21] = test: Pre-emergence herbicidal activity against Amaranthus spinosus assessed as growth inhibition at 75 ai g/ha after 20 days by green house test; format: functional
Abutilon theophrasti [22] = test: Post-emergence herbicidal activity against Abutilon theophrasti (velvetleaf) assessed as growth inhibition at 450 ai g/ha after 20 days by green house test; format: functional
Amaranthus retroflexus [23] = test: Post-emergence herbicidal activity against Amaranthus retroflexus assessed as growth inhibition at 450 ai g/ha after 20 days by green house test; format: functional
Abutilon theophrasti [24] = test: Post-emergence herbicidal activity against Abutilon theophrasti (velvetleaf) assessed as growth inhibition at 150 ai g/ha after 20 days by green house test; format: functional
Setaria viridis [25] = test: Post-emergence herbicidal activity against Setaria viridis (green foxtail) assessed as growth inhibition at 450 ai g/ha after 20 days by green house test; format: functional
Setaria viridis [26] = test: Post-emergence herbicidal activity against Setaria viridis (green foxtail) assessed as growth inhibition at 150 ai g/ha after 20 days by green house test; format: functional
Setaria viridis [27] = test: Post-emergence herbicidal activity against Setaria viridis (green foxtail) assessed as growth inhibition at 75 ai g/ha after 20 days by green house test; format: functional
Setaria viridis [28] = test: Pre-emergence herbicidal activity against Setaria viridis (green foxtail) assessed as growth inhibition at 150 ai g/ha after 20 days by green house test; format: functional
Digitaria sanguinalis [29] = test: Post-emergence herbicidal activity against Digitaria sanguinalis (hairy crabgrass) assessed as growth inhibition at 450 ai g/ha after 20 days by green house test; format: functional

| SMILES | growth inhibition (GI) (Brassica juncea) [%] | growth inhibition (GI) (Digitaria sanguinalis [1]) [%] | growth inhibition (GI) (Chenopodium album [2]) [%] | growth inhibition (GI) (Chenopodium album [3]) [%] | growth inhibition (GI) (Chenopodium album [4]) [%] | growth inhibition (GI) (Amaranthus spinosus [5]) [%] | growth inhibition (GI) (Amaranthus spinosus [6]) [%] | growth inhibition (GI) (Amaranthus spinosus [7]) [%] | inhibition [8] [%] | inhibition [9] [%] | IC50 [10] [µM] | growth inhibition (GI) (Abutilon theophrasti [11]) [%] | growth inhibition (GI) (Abutilon theophrasti [12]) [%] | growth inhibition (GI) (Abutilon theophrasti [13]) [%] | growth inhibition (GI) (Echinochloa crus-galli [14]) [%] | growth inhibition (GI) (Medicago sativa) [%] | growth inhibition (GI) (Amaranthus retroflexus [15]) [%] | growth inhibition (GI) [16] [%] | growth inhibition (GI) (Digitaria sanguinalis [17]) [%] | growth inhibition (GI) (Echinochloa crus-galli [18]) [%] | also measured |
| --- | --- | --- | --- | --- | --- | --- | --- | --- | --- | --- | --- | --- | --- | --- | --- | --- | --- | --- | --- | --- | --- |
| O=C(O)COc1ccc(Cl)cc1Cl [2,4-DICHLOROPHENOXYACETIC ACID] | 100 | 0 | 100 | 0 | 0 | 92.5 | 92.5 | 60 | 27.8 | 48.1 | > 4530 | 72.5 | 0 | 0 | 50 | 90 | 90 | 90 | 90 | 75 | growth inhibition (GI) (Amaranthus spinosus [19]): 0%; growth inhibition (GI) (Amaranthus spinosus [20]): 0%; growth inhibition (GI) (Amaranthus spinosus [21]): 0%; growth inhibition (GI) (Abutilon theophrasti [22]): 100%; growth inhibition (GI) (Amaranthus retroflexus [23]): 100%; growth inhibition (GI) (Abutilon theophrasti [24]): 100%; growth inhibition (GI) (Setaria viridis [25]): 0%; growth inhibition (GI) (Setaria viridis [26]): 0%; growth inhibition (GI) (Setaria viridis [27]): 0%; growth inhibition (GI) (Setaria viridis [28]): 5.5%; growth inhibition (GI) (Digitaria sanguinalis [29]): 0% |
| COP(=O)(OC)C(C)OC(=O)COc1ccc(Cl)cc1Cl (configuration not stated) [CLACYFOS] | 100 | 0 | 100 | 0 | 0 | 100 | 100 | 90 | 59 | 73.8 | 18.2 | 97.5 | 0 | 0 | 50 | 90 | 90 | 90 | 75 | 75 | growth inhibition (GI) (Amaranthus spinosus [19]): 0%; growth inhibition (GI) (Amaranthus spinosus [20]): 0%; growth inhibition (GI) (Amaranthus spinosus [21]): 0%; growth inhibition (GI) (Abutilon theophrasti [22]): 100%; growth inhibition (GI) (Amaranthus retroflexus [23]): 100%; growth inhibition (GI) (Abutilon theophrasti [24]): 100%; growth inhibition (GI) (Setaria viridis [25]): 0%; growth inhibition (GI) (Setaria viridis [26]): 0%; growth inhibition (GI) (Setaria viridis [27]): 0%; growth inhibition (GI) (Setaria viridis [28]): 0%; growth inhibition (GI) (Digitaria sanguinalis [29]): 37.5% |
